From ChEMBL document CHEMBL5696442, “Discovery of type II inhibitors of TGFβ-activated kinase 1 (TAK1) and mitogen-activated protein kinase kinase kinase kinase 2 (MAP4K2)” (J Med Chem, 2015) come the findings set out here.

Usually inhibition stands for the drop in the measured response relative to a control, in per cent. In general, residual activity refers to the activity still measured, relative to the control. Low values mean a large loss of activity, high ones a small loss of activity.

In assay [1] the target is Serine/threonine-protein kinase PLK1 (Homo sapiens) (UniProt P53350). Description: Inhibition of PLK1 Lys1 labeling site harbouring EVFAGKIVPK in human Huh-7 cell lysate at 1 uM by KiNativ Profiling analysis relative to control. The class given is subcellular.
Serine/threonine-protein kinase PLK1 (Homo sapiens), sequence (P53350 whole entry): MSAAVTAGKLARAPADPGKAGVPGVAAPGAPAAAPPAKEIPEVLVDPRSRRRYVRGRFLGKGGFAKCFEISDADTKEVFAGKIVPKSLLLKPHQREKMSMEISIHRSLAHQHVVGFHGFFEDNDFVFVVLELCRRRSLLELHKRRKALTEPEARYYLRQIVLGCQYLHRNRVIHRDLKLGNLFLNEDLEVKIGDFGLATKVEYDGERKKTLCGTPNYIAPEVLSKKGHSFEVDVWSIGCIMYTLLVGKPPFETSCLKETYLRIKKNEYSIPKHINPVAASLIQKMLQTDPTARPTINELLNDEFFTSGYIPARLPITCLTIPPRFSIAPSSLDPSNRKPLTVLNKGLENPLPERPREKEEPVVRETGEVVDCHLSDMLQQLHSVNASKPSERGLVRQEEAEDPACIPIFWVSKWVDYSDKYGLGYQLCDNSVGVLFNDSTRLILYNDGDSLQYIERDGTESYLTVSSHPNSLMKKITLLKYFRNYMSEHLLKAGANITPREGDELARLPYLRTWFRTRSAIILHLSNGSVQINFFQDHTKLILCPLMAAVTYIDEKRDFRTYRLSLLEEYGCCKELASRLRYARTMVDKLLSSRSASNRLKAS
For assay [2], the target named is Serine/threonine-protein kinase VRK2 (Homo sapiens) (UniProt Q86Y07). Description: Inhibition of VRK2 Lys2 labeling site in human Huh-7 cells at 1 uM by KiNativ Profiling analysis relative to control. The class given is cell-based.
Serine/threonine-protein kinase VRK2 (Homo sapiens), sequence (Q86Y07 whole entry): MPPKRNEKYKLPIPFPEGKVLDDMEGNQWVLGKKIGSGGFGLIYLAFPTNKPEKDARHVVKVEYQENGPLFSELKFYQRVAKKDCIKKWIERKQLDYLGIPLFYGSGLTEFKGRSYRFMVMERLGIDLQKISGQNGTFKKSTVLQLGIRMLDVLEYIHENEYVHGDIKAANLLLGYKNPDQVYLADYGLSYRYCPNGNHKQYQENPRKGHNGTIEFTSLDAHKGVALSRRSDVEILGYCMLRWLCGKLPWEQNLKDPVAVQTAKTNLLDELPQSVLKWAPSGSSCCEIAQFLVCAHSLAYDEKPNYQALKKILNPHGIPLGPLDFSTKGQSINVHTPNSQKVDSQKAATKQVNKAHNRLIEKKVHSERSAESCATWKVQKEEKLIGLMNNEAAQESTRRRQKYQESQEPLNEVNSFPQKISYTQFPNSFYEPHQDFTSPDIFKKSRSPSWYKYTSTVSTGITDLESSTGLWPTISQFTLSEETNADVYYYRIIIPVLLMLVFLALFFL
Assay [3] has as its target Calcium/calmodulin-dependent protein kinase type II subunit gamma (Homo sapiens) (UniProt Q13555). The experiment in a line: Inhibition of CaMK2g Lys1 labeling site harbouring TSTQEYAAKIINTKK in human Huh-7 cell lysate at 1 uM by KiNativ Profiling analysis relative to control. The class given is subcellular.
Assay [4] addresses T1, Phosphatidylinositol 5-phosphate 4-kinase type-2 beta (Homo sapiens) (UniProt P78356).
T1 sequence (whole entry): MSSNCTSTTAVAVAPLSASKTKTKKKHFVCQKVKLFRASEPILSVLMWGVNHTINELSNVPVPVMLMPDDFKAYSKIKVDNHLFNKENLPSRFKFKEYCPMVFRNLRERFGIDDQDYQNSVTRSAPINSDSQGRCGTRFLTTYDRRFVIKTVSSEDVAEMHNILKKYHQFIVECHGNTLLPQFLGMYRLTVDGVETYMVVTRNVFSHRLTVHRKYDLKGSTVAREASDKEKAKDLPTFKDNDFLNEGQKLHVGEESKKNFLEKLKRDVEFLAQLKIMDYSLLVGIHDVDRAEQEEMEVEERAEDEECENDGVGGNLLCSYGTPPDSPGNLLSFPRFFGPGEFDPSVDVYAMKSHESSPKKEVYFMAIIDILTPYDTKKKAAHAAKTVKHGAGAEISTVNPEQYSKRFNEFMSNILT
The experiment in a line: Inhibition of PIP5K2B (unknown origin) at 1 uM by Ambit Kinomescan binding assay relative to control; values are per cent of control.

For assay [5], the target named is T2, Serine/threonine-protein kinase B-raf (Homo sapiens, UniProt P15056). The experiment in a line: Inhibition of BRAF Lys2 labeling site in human A-375 cells at 0.5 uM by KiNativ Profiling analysis relative to control. The class given is cell-based.
T2 sequence (P15056 whole entry): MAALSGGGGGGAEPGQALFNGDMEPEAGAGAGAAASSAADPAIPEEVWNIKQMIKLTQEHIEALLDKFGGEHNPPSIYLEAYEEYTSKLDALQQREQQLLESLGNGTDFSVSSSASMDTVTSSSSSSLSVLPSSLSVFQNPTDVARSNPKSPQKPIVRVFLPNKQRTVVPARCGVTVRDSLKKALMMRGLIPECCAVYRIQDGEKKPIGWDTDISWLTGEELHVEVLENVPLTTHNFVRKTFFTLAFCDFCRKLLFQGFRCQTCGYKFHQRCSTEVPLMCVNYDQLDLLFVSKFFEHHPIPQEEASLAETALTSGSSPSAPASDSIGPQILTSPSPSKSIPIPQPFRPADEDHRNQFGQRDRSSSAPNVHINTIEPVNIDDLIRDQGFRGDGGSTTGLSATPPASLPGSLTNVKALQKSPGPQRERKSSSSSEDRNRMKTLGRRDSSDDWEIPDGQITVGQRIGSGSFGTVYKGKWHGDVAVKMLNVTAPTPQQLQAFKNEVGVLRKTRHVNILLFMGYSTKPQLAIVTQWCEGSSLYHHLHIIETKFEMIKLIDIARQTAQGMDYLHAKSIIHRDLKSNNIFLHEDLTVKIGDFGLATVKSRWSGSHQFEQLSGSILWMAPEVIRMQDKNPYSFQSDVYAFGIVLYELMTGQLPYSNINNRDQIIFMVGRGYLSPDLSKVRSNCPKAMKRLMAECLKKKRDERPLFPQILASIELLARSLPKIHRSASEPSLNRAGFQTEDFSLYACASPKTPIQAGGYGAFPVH
Assay [6] concerns the target T3, Interleukin-1 receptor-associated kinase 4 (Homo sapiens) (UniProt Q9NWZ3).
T3 sequence (whole entry): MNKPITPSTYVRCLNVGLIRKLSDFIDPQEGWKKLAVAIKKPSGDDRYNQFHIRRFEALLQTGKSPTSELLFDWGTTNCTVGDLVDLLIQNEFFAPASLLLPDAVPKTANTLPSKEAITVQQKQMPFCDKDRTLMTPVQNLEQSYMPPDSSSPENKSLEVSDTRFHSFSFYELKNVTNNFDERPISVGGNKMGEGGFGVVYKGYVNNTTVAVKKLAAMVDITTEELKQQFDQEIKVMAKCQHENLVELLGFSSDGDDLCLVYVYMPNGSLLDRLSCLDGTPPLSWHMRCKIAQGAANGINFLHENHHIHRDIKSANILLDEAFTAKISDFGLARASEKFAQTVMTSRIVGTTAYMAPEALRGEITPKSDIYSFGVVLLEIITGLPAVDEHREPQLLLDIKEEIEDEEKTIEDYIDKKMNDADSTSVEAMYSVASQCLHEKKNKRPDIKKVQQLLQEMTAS
The experiment in a line: Inhibition of IRAK4 Lys2 labeling site in human A-375 cells at 0.5 uM by KiNativ Profiling analysis relative to control. The class given is cell-based.

Assay [7] has as its target T2, Serine/threonine-protein kinase B-raf. Description: Inhibition of BRAF Lys2 labeling site in human A-375 cells at 0.05 uM by KiNativ Profiling analysis relative to control. The class given is cell-based.
Assay [8] has as its target Mitogen-activated protein kinase 11 (Homo sapiens) (UniProt Q15759). Description: Inhibition of p38 beta in human A-375 cells at 5 uM by KiNativ Profiling analysis relative to control. The class given is cell-based.
Assay [9] deals with Cyclin-dependent kinase 2 (Homo sapiens) (UniProt P24941). Description: Inhibition of CDK2 (unknown origin) at 10 uM by Ambit Kinomescan binding assay relative to control.
Assay [10] concerns the target Rho-associated protein kinase 2 (Homo sapiens) (UniProt O75116). The experiment in a line: Inhibition of ROCK2 Lys2 labeling site in human A-375 cells at 0.05 uM by KiNativ Profiling analysis relative to control. The class given is cell-based.
Assay [11] deals with T4, Serine/threonine-protein kinase greatwall (Homo sapiens) (UniProt Q96GX5).
T4 sequence (whole entry): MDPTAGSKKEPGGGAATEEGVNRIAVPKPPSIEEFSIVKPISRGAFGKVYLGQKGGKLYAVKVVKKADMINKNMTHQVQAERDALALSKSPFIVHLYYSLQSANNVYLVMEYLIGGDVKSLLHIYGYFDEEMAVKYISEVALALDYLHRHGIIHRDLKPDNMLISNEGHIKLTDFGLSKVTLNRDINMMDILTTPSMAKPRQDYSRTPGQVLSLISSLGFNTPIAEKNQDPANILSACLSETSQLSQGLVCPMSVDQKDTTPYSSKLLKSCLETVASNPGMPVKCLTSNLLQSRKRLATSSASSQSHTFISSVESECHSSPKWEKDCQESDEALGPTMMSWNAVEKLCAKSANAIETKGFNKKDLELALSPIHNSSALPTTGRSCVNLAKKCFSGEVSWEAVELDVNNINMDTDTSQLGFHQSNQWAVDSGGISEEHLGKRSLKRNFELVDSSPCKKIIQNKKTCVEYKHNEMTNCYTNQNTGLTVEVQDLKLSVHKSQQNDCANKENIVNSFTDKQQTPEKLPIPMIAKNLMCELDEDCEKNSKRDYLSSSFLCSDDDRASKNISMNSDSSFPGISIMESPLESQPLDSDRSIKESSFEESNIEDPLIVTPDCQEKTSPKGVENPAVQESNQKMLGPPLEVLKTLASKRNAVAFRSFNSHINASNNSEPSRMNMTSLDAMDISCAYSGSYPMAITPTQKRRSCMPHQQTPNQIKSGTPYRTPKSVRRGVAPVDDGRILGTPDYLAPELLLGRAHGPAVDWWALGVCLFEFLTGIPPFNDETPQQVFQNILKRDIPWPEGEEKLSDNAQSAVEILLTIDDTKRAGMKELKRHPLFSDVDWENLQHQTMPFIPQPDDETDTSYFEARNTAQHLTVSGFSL
Description: Inhibition of MASTL ATP labeling site in human Huh-7 cells at 1 uM by KiNativ Profiling analysis relative to control. The class given is cell-based.

For assay [12], the target named is TRAF2 and NCK-interacting protein kinase (Homo sapiens) (UniProt Q9UKE5). Description: Inhibition of ZC2/TNIK K2 labeling site in human Huh-7 cells at 1 uM by KiNativ Profiling analysis relative to control. The class given is cell-based.
TRAF2 and NCK-interacting protein kinase (Homo sapiens), sequence (Q9UKE5 whole entry, looked up): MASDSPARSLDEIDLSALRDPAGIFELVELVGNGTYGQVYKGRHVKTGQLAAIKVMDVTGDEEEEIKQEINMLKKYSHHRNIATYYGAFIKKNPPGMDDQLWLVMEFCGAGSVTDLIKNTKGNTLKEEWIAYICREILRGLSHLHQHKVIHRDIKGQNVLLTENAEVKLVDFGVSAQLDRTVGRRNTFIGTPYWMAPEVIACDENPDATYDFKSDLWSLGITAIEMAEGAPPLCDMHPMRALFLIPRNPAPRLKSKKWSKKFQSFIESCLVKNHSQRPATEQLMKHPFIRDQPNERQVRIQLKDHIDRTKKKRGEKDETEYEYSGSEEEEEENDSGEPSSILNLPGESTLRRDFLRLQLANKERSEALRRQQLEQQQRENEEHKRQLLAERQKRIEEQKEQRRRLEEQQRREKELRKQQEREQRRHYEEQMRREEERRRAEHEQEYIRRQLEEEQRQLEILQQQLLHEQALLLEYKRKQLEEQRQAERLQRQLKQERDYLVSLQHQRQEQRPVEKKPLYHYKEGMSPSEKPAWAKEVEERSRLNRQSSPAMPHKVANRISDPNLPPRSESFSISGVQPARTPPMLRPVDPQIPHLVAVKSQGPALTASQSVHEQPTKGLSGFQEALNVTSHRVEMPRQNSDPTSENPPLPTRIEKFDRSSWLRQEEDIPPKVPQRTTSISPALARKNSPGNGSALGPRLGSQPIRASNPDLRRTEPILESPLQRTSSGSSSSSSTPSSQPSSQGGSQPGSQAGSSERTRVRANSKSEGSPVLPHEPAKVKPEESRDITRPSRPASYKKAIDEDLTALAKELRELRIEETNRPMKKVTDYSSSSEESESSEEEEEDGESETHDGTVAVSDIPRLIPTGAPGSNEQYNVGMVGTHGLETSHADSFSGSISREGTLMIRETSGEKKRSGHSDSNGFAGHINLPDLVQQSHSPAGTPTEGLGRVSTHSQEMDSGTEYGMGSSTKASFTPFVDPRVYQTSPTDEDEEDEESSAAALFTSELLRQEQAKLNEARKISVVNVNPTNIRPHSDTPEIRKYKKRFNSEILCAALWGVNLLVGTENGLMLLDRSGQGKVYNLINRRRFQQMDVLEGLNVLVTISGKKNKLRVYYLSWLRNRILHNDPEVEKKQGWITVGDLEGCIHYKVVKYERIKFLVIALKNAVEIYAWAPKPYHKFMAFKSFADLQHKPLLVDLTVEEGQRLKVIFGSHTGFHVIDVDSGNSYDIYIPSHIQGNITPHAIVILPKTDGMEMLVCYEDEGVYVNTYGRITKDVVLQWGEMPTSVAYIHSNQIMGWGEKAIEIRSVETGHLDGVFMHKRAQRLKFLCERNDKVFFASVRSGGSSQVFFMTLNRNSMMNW
In assay [13] the target is Serine/threonine-protein kinase WNK4 (Homo sapiens) (UniProt Q96J92). The experiment in a line: Inhibition of Wnk4 Lys2 labeling site in human A-375 cells at 0.5 uM by KiNativ Profiling analysis relative to control. The class given is cell-based.
The target of assay [14] is Ephrin type-A receptor 8 (Homo sapiens) (UniProt P29322). The experiment in a line: Inhibition of EPHA8 (unknown origin) at 10 uM by Ambit Kinomescan binding assay relative to control.
Ephrin type-A receptor 8 (Homo sapiens), sequence (P29322 whole entry): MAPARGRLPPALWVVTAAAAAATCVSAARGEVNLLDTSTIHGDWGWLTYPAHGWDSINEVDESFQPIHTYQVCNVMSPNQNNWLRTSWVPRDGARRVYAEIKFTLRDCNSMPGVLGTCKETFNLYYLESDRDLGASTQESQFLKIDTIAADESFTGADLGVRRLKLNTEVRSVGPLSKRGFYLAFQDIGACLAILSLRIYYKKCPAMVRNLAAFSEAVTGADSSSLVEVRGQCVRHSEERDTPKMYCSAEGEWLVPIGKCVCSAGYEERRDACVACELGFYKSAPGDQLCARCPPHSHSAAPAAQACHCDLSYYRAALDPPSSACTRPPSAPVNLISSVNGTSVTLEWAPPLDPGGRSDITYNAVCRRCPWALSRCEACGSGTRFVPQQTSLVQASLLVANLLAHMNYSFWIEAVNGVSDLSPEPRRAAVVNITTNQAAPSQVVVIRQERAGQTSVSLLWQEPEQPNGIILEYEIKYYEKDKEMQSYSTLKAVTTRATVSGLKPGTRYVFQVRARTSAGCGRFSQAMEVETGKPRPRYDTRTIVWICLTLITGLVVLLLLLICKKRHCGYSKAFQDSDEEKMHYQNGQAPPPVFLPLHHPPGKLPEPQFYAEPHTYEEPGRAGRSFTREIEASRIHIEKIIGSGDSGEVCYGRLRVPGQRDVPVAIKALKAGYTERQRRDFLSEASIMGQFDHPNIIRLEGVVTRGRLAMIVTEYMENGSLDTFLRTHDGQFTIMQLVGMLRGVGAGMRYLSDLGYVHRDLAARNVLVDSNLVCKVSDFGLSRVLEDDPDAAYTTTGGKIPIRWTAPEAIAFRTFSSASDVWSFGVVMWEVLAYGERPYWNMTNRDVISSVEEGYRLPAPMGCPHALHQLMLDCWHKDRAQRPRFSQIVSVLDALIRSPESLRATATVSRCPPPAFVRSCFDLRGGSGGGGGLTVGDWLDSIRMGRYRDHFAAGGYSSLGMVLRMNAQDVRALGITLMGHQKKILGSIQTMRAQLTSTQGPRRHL

Each structure is given as a SMILES string.

Calcium/calmodulin-dependent protein kinase type II subunit gamma (Homo sapiens), sequence (Q13555 whole entry): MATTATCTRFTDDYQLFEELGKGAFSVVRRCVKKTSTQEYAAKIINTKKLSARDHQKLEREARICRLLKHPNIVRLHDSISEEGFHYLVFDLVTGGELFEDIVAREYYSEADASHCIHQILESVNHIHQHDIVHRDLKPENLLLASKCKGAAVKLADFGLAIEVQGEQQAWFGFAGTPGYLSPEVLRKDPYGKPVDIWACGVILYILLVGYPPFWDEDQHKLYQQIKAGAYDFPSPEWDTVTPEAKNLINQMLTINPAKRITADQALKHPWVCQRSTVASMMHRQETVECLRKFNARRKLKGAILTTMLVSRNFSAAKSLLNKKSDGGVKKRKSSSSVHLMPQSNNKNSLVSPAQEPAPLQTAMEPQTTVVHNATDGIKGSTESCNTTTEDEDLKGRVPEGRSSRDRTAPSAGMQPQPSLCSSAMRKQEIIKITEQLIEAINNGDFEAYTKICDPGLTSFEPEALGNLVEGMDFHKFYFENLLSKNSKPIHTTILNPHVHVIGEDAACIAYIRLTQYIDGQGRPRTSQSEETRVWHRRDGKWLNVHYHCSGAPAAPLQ

Turning to `CNc1cc(Oc2cc(C(=O)Nc3cc(N4CCN(C)CC4)cc(C(F)(F)F)c3)ccc2C)ncn1`, the inhibition in assay [1] was 1.8%; in [2], 40.4%; in assay [3] it was 8.6%.
In assay [4], `CCN1CCN(Cc2ccc(NC(=O)c3ccc(C)c(/C=C/c4cnc5[nH]ccc5c4OC)c3)cc2C(F)(F)F)CC1` returned a residual activity of 12%. For the same molecule, the inhibition in assay [5] was 58.7%; in assay [6], 10.3%; in [7], 29.6%; in assay [8], 79.9%.
For `CCN1CCN(Cc2ccc(NC(=O)c3ccc(C)c(Oc4ccnc5[nH]ccc45)c3)cc2C(F)(F)F)CC1`, the inhibition in [9] worked out at 11%; in assay [10] it was 6%; in assay [11], 3.6%; in assay [12], 23%; in [13] it was 7.9%; in assay [14] it was 0.1%.
